The values below come from US8765779B2, “Tricyclic derivatives and their pharmaceutical use and compositions” (Cephalon, Inc., priority 2009, dated 2014).

For orientation: pKi means the negative decadic logarithm of the Ki, by convention in mol/L.

The structures appear in SMILES notation. pKi: −log10 of the molar value.

For this test, the target named is T1, human 5-HT6 receptor (Homo sapiens, UniProt P50406).
T1 construct: host or cells: CHO-K1 cells, stably transfected; membranes prepared in house
T1 sequence (P50406 whole entry): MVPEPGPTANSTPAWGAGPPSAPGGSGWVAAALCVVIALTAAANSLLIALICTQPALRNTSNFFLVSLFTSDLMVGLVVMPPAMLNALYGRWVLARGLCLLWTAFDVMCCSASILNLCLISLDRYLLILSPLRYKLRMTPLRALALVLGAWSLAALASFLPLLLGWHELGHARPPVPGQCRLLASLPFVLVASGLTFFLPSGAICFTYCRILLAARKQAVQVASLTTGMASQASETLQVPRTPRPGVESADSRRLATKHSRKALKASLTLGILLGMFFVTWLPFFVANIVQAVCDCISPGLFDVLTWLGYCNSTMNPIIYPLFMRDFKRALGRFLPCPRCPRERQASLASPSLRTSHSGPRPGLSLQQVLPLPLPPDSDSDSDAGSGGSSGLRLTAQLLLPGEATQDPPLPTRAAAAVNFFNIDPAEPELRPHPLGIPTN
The experiment in a line: Human 5-HT6 Receptor Binding Assay ([3H]LSD displacement, scintillation beads). The note with it: membranes of CHO-K1 cells with recombinant human 5-HT6, 4 nM [3H]LSD; Table 1, class symbols; read-out: h5-HT6 (Ki).
Take `CC12CCNCC1Oc1ccc(OS(=O)(=O)Cc3ccccc3)cc12` (stereo not drawn) [Example 758, 4a-methyl-1,2,3,4,4a,9a-hexahydro[1]benzofuro[2,3-c]pyridin-6-yl phenylmethanesulfonate]: the pKi was more than 6.30.

Regarding `CC12CCNCC1Oc1ccc(OS(=O)(=O)c3ccccc3)cc12` (stereo not drawn) [Example 759], the negative-log Ki (pKi) is less than 6.00.

On to `COc1ccc(S(=O)(=O)Oc2ccc3c(c2)C2(C)CCNCC2O3)cc1` (stereo not drawn) [Example 760], for which the negative logarithm of the Ki (pKi) is less than 6.00.

Turning to `COc1cccc(S(=O)(=O)Oc2ccc3c(c2)C2(C)CCNCC2O3)c1` (stereo not drawn) [Example 761], the pKi was less than 6.00.

In the case of `CC12CCNCC1Oc1ccc(OS(=O)(=O)c3cccc(Cl)c3)cc12` (stereo not drawn) [Example 762], the pKi is less than 6.00.

On to `CC12CCNCC1Oc1ccc(OS(=O)(=O)c3ccccc3Cl)cc12` (stereo not drawn) [Example 763], for which the negative-log Ki (pKi) is less than 6.00.

For the compound `CC12CCNCC1Oc1ccc(OS(=O)(=O)c3cc4ccccc4o3)cc12` (stereo not drawn) [Example 764], the pKi was 6.00 to 6.30.

On to `CC12CCNCC1Oc1ccc(OS(=O)(=O)c3cc4ccccc4o3)cc12` (stereo not drawn) [Example 765], for which the pKi is 6.00 to 6.30.

On to `CC(C)c1ccc(S(=O)(=O)Oc2ccc3c(c2)C2(C)CCNCC2O3)cc1` (stereo not drawn) [Example 766], for which the pKi is 6.00 to 6.30.

For the compound `Cc1c(Cl)cccc1S(=O)(=O)Oc1ccc2c(c1)C1(C)CCNCC1O2` (stereo not drawn) [Example 767], the pKi is less than 6.00.

Turning to `CC12CCNCC1Oc1ccc(OS(=O)(=O)c3cccc4ccccc34)cc12` (stereo not drawn) [Example 768], the pKi is 6.00 to 6.30.

As for `CC12CCNCC1Oc1ccc(OS(=O)(=O)c3ccc4ccccc4c3)cc12` (stereo not drawn) [Example 769], the pKi is more than 6.30.

As to `CC12CCNCC1Oc1ccc(OS(=O)(=O)c3cccc4cccnc34)cc12` (stereo not drawn) [Example 770], the pKi is less than 6.00.

`CC12CCNCC1Oc1ccc(OS(=O)(=O)c3csc4ccccc34)cc12` (stereo not drawn) [Example 771]: the pKi was more than 6.30.

As for `CC12CCNCC1Oc1ccc(OS(=O)(=O)c3csc4ccccc34)cc12` (stereo not drawn) [Example 772], the negative-log Ki (pKi) is more than 6.30.

For `CC12CCNCC1Oc1ccc(OS(=O)(=O)c3cc4ccccc4s3)cc12` (stereo not drawn) [Example 773], the pKi is more than 6.30.

Regarding `CC(C)(C)c1ccc(S(=O)(=O)Oc2ccc3c(c2)C2(C)CCNCC2O3)cc1` (stereo not drawn) [Example 774], the pKi is less than 6.00.

Consider `CC12CCNCC1Oc1ccc(OS(=O)(=O)c3ccc4c(c3)OCCO4)cc12` (stereo not drawn) [Example 775], for which the pKi was more than 6.30.

With `CC12CCNCC1Oc1ccc(OS(=O)(=O)c3ccc(-n4cccn4)cc3)cc12` (stereo not drawn) [Example 776], the pKi is less than 6.00.

`CC12CCNCC1Oc1ccc(OS(=O)(=O)c3ccc(-c4cnco4)cc3)cc12` (stereo not drawn) [Example 777]: the pKi was less than 6.00.

As to `CC12CCNCC1Oc1ccc(OS(=O)(=O)c3ccc(C(F)(F)F)cc3)cc12` (stereo not drawn) [Example 778], the pKi was less than 6.00.

On to `CC12CCNCC1Oc1ccc(OS(=O)(=O)c3ccccc3C(F)(F)F)cc12` (stereo not drawn) [Example 779], for which the pKi was less than 6.00.

Regarding `CC12CCNCC1Oc1ccc(OS(=O)(=O)c3cccc(C(F)(F)F)c3)cc12` (stereo not drawn) [Example 780], the pKi was less than 6.00.

Regarding `CC12CCNCC1Oc1ccc(OS(=O)(=O)c3ccc(-c4ccon4)s3)cc12` (stereo not drawn) [Example 781], the pKi is less than 6.00.

As for `CC12CCNCC1Oc1ccc(OS(=O)(=O)c3ccc(Oc4ccccc4)nc3)cc12` (stereo not drawn) [Example 782], the pKi was less than 6.00.

As for `Cc1c(S(=O)(=O)Oc2ccc3c(c2)C2(C)CCNCC2O3)sc2ccc(Cl)cc12` (stereo not drawn) [Example 783], the negative logarithm of the Ki (pKi) is 6.00 to 6.30.

Turning to `CC12CCNCC1Oc1ccc(OS(=O)(=O)Cc3ccccc3Cl)cc12` (stereo not drawn) [Example 784], the pKi was more than 6.30.

Take `CC12CCNCC1Oc1ccc(OS(=O)(=O)CCc3ccccc3)cc12` (stereo not drawn) [Example 785]: the pKi is less than 6.00.

In the case of `CC12CCNCC1Oc1ccc(OS(=O)(=O)Cc3ccccc3F)cc12` (stereo not drawn) [Example 786], the pKi is more than 6.30.

Regarding `CC12CCNCC1Oc1ccc(OS(=O)(=O)Cc3ccc(F)cc3F)cc12` (stereo not drawn) [Example 787], the pKi is less than 6.00.

Take `CC12CCNCC1Oc1ccc(OS(=O)(=O)Cc3cccc(C(F)(F)F)c3)cc12` (stereo not drawn) [Example 788]: the pKi was more than 6.30.

On to `CC12CCNCC1Oc1ccc(OS(=O)(=O)Cc3ccc(Cl)cc3)cc12` (stereo not drawn) [Example 789], for which the negative logarithm of the Ki (pKi) is less than 6.00.

On to `CC12CCNCC1Oc1ccc(OS(=O)(=O)Cc3ccc(F)cc3)cc12` (stereo not drawn) [Example 790], for which the pKi was less than 6.00.

Regarding `CC12CCNCC1Oc1ccc(OS(=O)(=O)Cc3cccc(Cl)c3)cc12` (stereo not drawn) [Example 791], the pKi is more than 6.30.

Consider `O=S(=O)(Oc1ccc2c(c1)OC1CNCCC21)c1c(Cl)nc2sccn12` (stereo not drawn) [Example 792], for which the negative logarithm of the Ki (pKi) was more than 6.30.

`O=S(=O)(Oc1ccc2c(c1)OC1CNCCC21)c1c(Cl)nc2sccn12` (stereo not drawn) [Example 793]: the negative-log Ki (pKi) was more than 6.30.

For the compound `CC(C)c1ccc(S(=O)(=O)Oc2ccc3c(c2)OC2CNCCC32)cc1` (stereo not drawn) [Example 794], the pKi is more than 6.30.

Regarding `CC(C)c1ccc(S(=O)(=O)Oc2ccc3c(c2)OC2CNCCC32)cc1` (stereo not drawn) [Example 795], the pKi is more than 6.30.

Turning to `Cc1c(S(=O)(=O)Oc2ccc3c(c2)OC2CNCCC32)sc2ccc(Cl)cc12` (stereo not drawn) [Example 796], the negative logarithm of the Ki (pKi) was more than 6.30.

Regarding `Cc1c(S(=O)(=O)Oc2ccc3c(c2)OC2CNCCC32)sc2ccc(Cl)cc12` (stereo not drawn) [Example 797], the pKi is more than 6.30.

On to `CC(C)N1CCC2c3ccc(OS(=O)(=O)c4ccc(Cl)cc4)cc3OC2C1` (stereo not drawn) [Example 798, 2-(Propan-2-yl)-1,2,3,4,4a,9a-hexahydro[1]benzofuro[2,3-c]pyridin-7-yl-4-chlorobenzenesulfonate], for which the pKi is less than 6.00.

For the compound `CN1CCC2c3ccc(OS(=O)(=O)c4ccc(Cl)cc4)cc3OC2C1` (stereo not drawn) [Example 799], the pKi is 6.00 to 6.30.

For `O=S(=O)(Oc1ccc2c(c1)OC1CN(C3CCC3)CCC21)c1ccc(Cl)cc1` (stereo not drawn) [Example 800], the pKi is less than 6.00.

Take `O=S(=O)(Oc1ccc2c(c1)OC1CN(C3CCCC3)CCC21)c1ccc(Cl)cc1` (stereo not drawn) [Example 801]: the pKi is less than 6.00.

With `O=S(=O)(Oc1ccc2c(c1)OC1CN(C3CCCCC3)CCC21)c1ccc(Cl)cc1` (stereo not drawn) [Example 802], the pKi was 6.00 to 6.30.

As for `O=S(=O)(Oc1ccc2c(c1)OC1CN(Cc3ccccc3)CCC21)c1ccc(Cl)cc1` (stereo not drawn) [Example 803], the negative logarithm of the Ki (pKi) is less than 6.00.

As for `CC(C)N1CCC2(C)c3cc(OS(=O)(=O)Cc4ccccc4)ccc3OC2C1` (stereo not drawn) [Example 804], the pKi was less than 6.00.

For `CC12CCN(C3CCC3)CC1Oc1ccc(OS(=O)(=O)Cc3ccccc3)cc12` (stereo not drawn) [Example 805], the pKi was less than 6.00.

For the compound `CC12CCN(C3CCCC3)CC1Oc1ccc(OS(=O)(=O)Cc3ccccc3)cc12` (stereo not drawn) [Example 806], the pKi was less than 6.00.

As for `CC12CCN(C3CCCCC3)CC1Oc1ccc(OS(=O)(=O)Cc3ccccc3)cc12` (stereo not drawn) [Example 807], the pKi is less than 6.00.

With `CC12CCN(Cc3ccccc3)CC1Oc1ccc(OS(=O)(=O)Cc3ccccc3)cc12` (stereo not drawn) [Example 808], the pKi was less than 6.00.

Regarding `CN1CCC2(C)c3cc(OS(=O)(=O)Cc4ccccc4)ccc3OC2C1` (stereo not drawn) [Example 809], the pKi is less than 6.00.

As for `CCN1CCC2(C)c3cc(OS(=O)(=O)Cc4ccccc4)ccc3OC2C1` (stereo not drawn) [Example 810, 2-Ethyl-4a-methyl-1,2,3,4,4a,9a-hexahydro[1]benzofuro[2,3-c]pyridin-6-yl phenylmethanesulfonate], the pKi is less than 6.00.

Regarding `CC12CCN(CCc3ccccc3)CC1Oc1ccc(OS(=O)(=O)Cc3ccccc3)cc12` (stereo not drawn) [Example 811], the pKi is less than 6.00.
